{"source": "patent US7198945B2", "about": "“Cell having modified cell membrane” (Teruyuki Nagamune, priority 2001, dated 2007)", "key": {"[1]": {"tested_on": "mouse fibroblast cell line NIH3T3", "experiment": "Anchoring of conjugates to cell membranes, observed by confocal laser scanning microscope", "conditions": "for Anchoring to cell surface: Mouse fibroblasts NIH3T3, 37° C. for 5 min, confocal microscope, 1000 magnifications", "procedure": "Mouse fibroblasts NIH3T3 were cultured at 37° C. under 5% CO2 concentration using Dulbecco's Modified Eagle's Medium supplemented with 10% fetal calf serum and Glass bottom Microwell Dishes (35 mm dish, Uncoated, No. 0 Coverslip). The cells were cultured until the culture was approximately 80% confluent for 20 hours to 45 hours. […] The Glass bottom Microwell Dishes with NIH3T3 cells attached thereto were rinsed with 2 mL of phosphate buffered saline (the same as described above) which was subjected to filtration sterilization beforehand. Then, 0.1 mL of the polyethylene oxide oleylether-biotin conjugate solution was added to the NIH3T3 cells attached on the glass surface and a reaction was performed at 37° C. for 5 min. After the reaction, the cells were washed twice with 2 mL of phosphate buffered saline. Then, 0.1 mL of phosphate buffered saline containing 6.7 nM streptavidin and fluorescein conjugate (Molecular Probes; Cat# S-869) (hereinafter referred to as “fluorescein-labeled streptavidin”) was added to the cells, followed by incubation at 37° C. for 20 min.\nThe modification of the cell membranes was verified by observing the cells under a confocal laser scanning microscope (Leica)."}, "[2]": {"tested_on": "Chinese hamster ovarian follicle cell line CHO", "experiment": "Anchoring of EGFP conjugate to cell membranes, observed by confocal laser scanning microscope", "type": "cell-based", "design": "Anchoring to cell surface: key to the marks not given beside the values", "description": "Therefore, it was verified that the conjugate can be anchored to cells other than mouse cells."}, "[3]": {"tested_on": "suspended cells (32D, Ba/F3 and 9E10 cells)", "experiment": "Anchoring of EGFP conjugate to suspended cells, flow cytometer", "type": "cell-based, mouse", "design": "Anchoring to cell surface: key to the marks not given beside the values", "protocol": "(§1) Mouse hybridoma 9E10 was cultured at 37° C. under 5% CO2 concentration using RPMI 1640 media (“Nissui” powder, NISSUI PHARMACEUTICAL CO., LTD., Cat# 05918) supplemented with 10% fetal calf serum. […] 32D, Ba/F3 and 9E10 cells (hereinafter, generically called as “suspended cells”) were centrifuged to collect 1×10^6 cells. Each of the cell was centrifuged for washing with 13 mL of phosphate buffered saline. […] Then the cells were centrifuged for washing once with 13 mL of phosphate buffered saline, and then 1 mL of phosphate buffered saline was added to each cell pellet.\n(§2) Respective treated cell suspensions were observed under a flow cytometer (Coulter, EPICS-C). […] Thus, it was verified that the polyethylene oxide oleylether-EGFP can be anchored to suspended cells."}, "mouse hybridoma 9E10": {"tested_on": "mouse hybridoma 9E10", "experiment": "Flow cytometer fluorescence intensity of treated suspended cells", "type": "cell-based", "conditions": "37° C. for 5 min", "protocol": "as §1, §2"}, "[4]": {"tested_on": "mouse myeloid cell line 32D", "experiment": "Flow cytometer fluorescence intensity of treated suspended cells", "type": "cell-based", "conditions": "37° C. for 5 min", "protocol": "as §1, §2"}, "[5]": {"tested_on": "mouse pro-B cell line Ba/F3", "experiment": "Flow cytometer fluorescence intensity of treated suspended cells", "type": "cell-based", "conditions": "37° C. for 5 min", "protocol": "as §1, §2"}, "[6]": {"conditions": "NIH3T3, confocal laser scanning microscope"}}, "note": "Entries after “also recorded” stand apart in the source; their conditions may differ.", "data": [{"compound": "NCCOCCOCCNC(=O)CCCC[C@@H]1SC[C@@H]2NC(=O)N[C@@H]21", "note": "[biotin-NH2, Biotin-PEO-Amine, reference compound]", "values": [{"measurement": "fluorescence on cell membranes / anchoring (result in words)", "setting": "[1]; [6]", "result": "no fluorescence from fluorescein was observed"}]}, {"compound": "Amino Polyethylene Oxide Oleylether (n=90, Average Molecular Weight of 4400)-biotin Conjugate [Example 12]", "values": [{"measurement": "Anchoring to cell surface", "setting": "[1]", "result": "++"}, {"measurement": "fluorescence on cell membranes / anchoring (result in words)", "setting": "[1]; [6]", "result": "remain unchanged and still excellent"}]}, {"compound": "Fluorescent-Labeled (Fluorescein)-Polyethylene Oxide-Modified Dioleoyl Phosphatidyl Ethanolamine [Example 11]", "values": [{"measurement": "Anchoring to cell surface", "setting": "[1]", "result": "++"}, {"measurement": "fluorescence on cell membranes / anchoring (result in words)", "setting": "[1]; [6]", "result": "Fluorescence from fluorescein was observed on the cell membranes of all the NIH3T3 cells"}]}, {"compound": "Oleic Acid-biotin [Example 15, reference compound]", "values": [{"measurement": "Anchoring to cell surface", "setting": "[1]", "result": "−"}, {"measurement": "fluorescence on cell membranes / anchoring (result in words)", "setting": "[1]; [6]", "result": "no fluorescence from fluorescein was observed"}]}, {"compound": "Polyethylene Oxide Nonylphenyl Ether (n=40, Average Molecular Weight of 2160)-biotin Conjugate [Example 17, reference compound]", "values": [{"measurement": "Anchoring to cell surface", "setting": "[1]", "result": "−"}, {"measurement": "fluorescence on cell membranes / anchoring (result in words)", "setting": "[1]; [6]", "result": "no fluorescence from fluorescein was observed"}]}, {"compound": "Polyethylene Oxide Oleylether (n=15; Average Molecular Weight of 1100)-biotin Conjugates [Example 7]", "values": [{"measurement": "Anchoring to cell surface", "setting": "[1]", "result": "++"}]}, {"compound": "Polyethylene Oxide Oleylether (n=40; Average Molecular Weight of 2250)-biotin Conjugates [Example 8]", "values": [{"measurement": "Anchoring to cell surface", "setting": "[1]", "result": "++"}]}, {"compound": "Polyethylene Oxide Oleylether (n=90, Average Molecular Weight of 4400)-Green Fluorescent Protein EGFP Conjugate [Example 4]", "values": [{"measurement": "fluorescence from EGFP on cell membranes (result in words)", "setting": "[2]; CHO cells, confocal laser scanning microscope", "result": "fluorescence from EGFP was observed on the cell membranes of all of the CHO cells"}, {"measurement": "Anchoring to cell surface", "setting": "[2]; Chinese hamster ovarian follicle cells CHO, confocal microscope", "result": "++"}, {"measurement": "Anchoring to cell surface", "setting": "[3]; Suspended cell", "result": "++"}, {"measurement": "fluorescence intensity of cells compared to cells treated only with EGFP (result in words)", "setting": "[3]; suspended cells, flow cytometer", "result": "an increased number of the cells with a stronger fluorescence intensity was observed"}, {"measurement": "relative value of fluorescence intensity of cells", "setting": "mouse hybridoma 9E10", "result": 49.6}, {"measurement": "relative value of fluorescence intensity of cells", "setting": "[4]", "result": 30.1}, {"measurement": "relative value of fluorescence intensity of cells", "setting": "[5]", "result": 36.7}, {"measurement": "Anchoring to cell surface", "setting": "[1]", "result": "++"}, {"measurement": "fluorescence on cell membranes / anchoring (result in words)", "setting": "[1]; [6]", "result": "anchored to the cell membranes"}]}, {"compound": "Polyethylene Oxide Oleylether (n=90, Average Molecular Weight of 4400)-biotin Conjugate [Example 2]", "values": [{"measurement": "Anchoring to cell surface", "setting": "[1]", "result": "++"}, {"measurement": "time in which conjugates were anchored to all of the cell membranes", "setting": "[1]; NIH3T3, 37° C.", "result": "≤ 5", "unit": "min"}, {"measurement": "fluorescence on cell membranes / anchoring (result in words)", "setting": "[1]; NIH3T3; confocal laser scanning microscope; average molecular weight of 4400)-biotin co", "result": "fluorescence deriving from fluorescein was observed on the cell membranes of all of the cells in the field; also recorded: fluorescence from fluorescein was specifically observed only in the cell membranes"}, {"measurement": "binding of biotin to streptavidin after anchoring", "setting": "[1]; NIH3T3, fluorescein-labeled streptavidin", "result": "not inhibited"}]}, {"compound": "Polyethylene Oxide Oleylether (n=180; Average Molecular Weight of 8400)-biotin Conjugates [Example 9]", "values": [{"measurement": "Anchoring to cell surface", "setting": "[1]", "result": "++"}]}, {"compound": "Polyethylene Oxide Stearyl Ether (n=15: Average Molecular Weight of 1100)-biotin Conjugates [Example 10]", "values": [{"measurement": "Anchoring to cell surface", "setting": "[1]", "result": "+"}, {"measurement": "fluorescence on cell membranes / anchoring (result in words)", "setting": "[1]; [6]", "result": "fluorescence from fluorescein was observed on the cell membranes of the NIH3T3 cells"}]}, {"compound": "polyethylene oxide oleylether succinate [reference compound]", "values": [{"measurement": "fluorescence on cell membranes / anchoring (result in words)", "setting": "[1]; [6]", "result": "no fluorescence from fluorescein was observed"}]}]}
